How the values were obtained:
[1] = molecular target: T1, Serine/threonine-protein kinase Sgk2 (Homo sapiens) (UniProt Q9HBY8); assay: Selectivity interaction (Ambit KINOMEscan and KiNATiv profiling in Jurkat cells) EUB0000090b SGK2; format: cell-based; conditions: at 1 µM
T1 sequence (whole entry): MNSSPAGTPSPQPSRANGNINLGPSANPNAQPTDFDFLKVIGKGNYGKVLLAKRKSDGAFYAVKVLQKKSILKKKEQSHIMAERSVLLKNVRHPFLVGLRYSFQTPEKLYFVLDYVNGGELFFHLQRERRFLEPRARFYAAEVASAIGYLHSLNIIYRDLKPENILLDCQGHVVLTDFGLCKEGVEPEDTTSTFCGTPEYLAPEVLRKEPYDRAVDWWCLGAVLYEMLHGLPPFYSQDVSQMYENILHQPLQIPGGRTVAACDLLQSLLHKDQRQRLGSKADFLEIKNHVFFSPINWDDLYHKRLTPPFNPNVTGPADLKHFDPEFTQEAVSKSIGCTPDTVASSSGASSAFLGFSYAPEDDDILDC

[2] = molecular target: Misshapen-like kinase 1 (Homo sapiens, UniProt Q8N4C8); assay: Selectivity interaction (ActivX KiNativ screen (ex vivo kinase selectivity in human PBMCs)) EUB0001619a MINK1; format: cell-based; conditions: PBMC, at 1 µM
[3] = molecular target: T2, Ankyrin repeat and protein kinase domain-containing protein 1 (Homo sapiens) (UniProt Q8NFD2); assay: Selectivity interaction (KinomeScan (DiscoverX)) EUB0000045b ANKK1
T2 sequence (whole entry): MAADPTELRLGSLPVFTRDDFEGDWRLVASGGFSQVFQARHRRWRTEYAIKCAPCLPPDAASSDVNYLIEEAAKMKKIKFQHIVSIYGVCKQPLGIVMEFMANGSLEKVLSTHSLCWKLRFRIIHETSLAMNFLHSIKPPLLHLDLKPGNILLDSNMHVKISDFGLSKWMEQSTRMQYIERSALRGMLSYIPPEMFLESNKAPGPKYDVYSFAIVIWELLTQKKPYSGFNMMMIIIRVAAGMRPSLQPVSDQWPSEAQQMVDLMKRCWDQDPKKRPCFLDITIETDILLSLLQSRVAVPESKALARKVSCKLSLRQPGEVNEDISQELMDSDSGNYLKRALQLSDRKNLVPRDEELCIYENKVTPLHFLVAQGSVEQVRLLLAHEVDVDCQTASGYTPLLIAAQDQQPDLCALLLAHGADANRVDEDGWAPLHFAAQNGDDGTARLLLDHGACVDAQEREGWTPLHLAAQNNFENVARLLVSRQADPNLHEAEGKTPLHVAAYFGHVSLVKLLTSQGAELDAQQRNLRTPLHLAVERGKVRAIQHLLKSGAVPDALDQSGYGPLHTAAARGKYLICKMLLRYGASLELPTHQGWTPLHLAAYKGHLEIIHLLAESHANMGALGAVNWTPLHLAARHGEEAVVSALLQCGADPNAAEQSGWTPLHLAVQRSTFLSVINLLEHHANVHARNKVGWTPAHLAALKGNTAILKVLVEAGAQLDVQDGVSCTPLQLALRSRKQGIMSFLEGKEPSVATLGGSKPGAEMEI

[4] = molecular target: T3, Serine/threonine-protein kinase NLK (Homo sapiens) (UniProt Q9UBE8); conditions: at 10 µM
T3 sequence (whole entry): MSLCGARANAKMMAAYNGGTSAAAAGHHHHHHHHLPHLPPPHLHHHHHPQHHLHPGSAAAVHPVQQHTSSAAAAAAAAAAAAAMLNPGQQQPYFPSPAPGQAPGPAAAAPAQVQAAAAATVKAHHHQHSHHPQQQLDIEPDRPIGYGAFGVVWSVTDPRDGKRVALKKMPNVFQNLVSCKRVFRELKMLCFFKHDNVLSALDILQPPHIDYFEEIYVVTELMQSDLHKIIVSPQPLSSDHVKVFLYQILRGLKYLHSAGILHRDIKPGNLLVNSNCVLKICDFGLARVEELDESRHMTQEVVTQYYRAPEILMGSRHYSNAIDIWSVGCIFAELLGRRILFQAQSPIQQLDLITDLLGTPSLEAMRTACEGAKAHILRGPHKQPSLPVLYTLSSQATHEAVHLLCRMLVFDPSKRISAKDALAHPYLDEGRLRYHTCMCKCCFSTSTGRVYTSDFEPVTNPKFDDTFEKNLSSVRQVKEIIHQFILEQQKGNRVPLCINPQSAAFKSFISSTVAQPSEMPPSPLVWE

[5] = molecular target: Tyrosine-protein kinase HCK (Homo sapiens) (UniProt P08631); assay: Selectivity interaction (Kinase panel (Z-LYTE Assay)) EUB0001632a HCK; conditions: at 10 µM
[6] = molecular target: Fibroblast growth factor receptor 4 (Homo sapiens, UniProt P22455); assay: Selectivity interaction (Kinase screening (Nanosyn)) EUB0000604a FGFR4
Fibroblast growth factor receptor 4, sequence (P22455 22-802 limits assumed): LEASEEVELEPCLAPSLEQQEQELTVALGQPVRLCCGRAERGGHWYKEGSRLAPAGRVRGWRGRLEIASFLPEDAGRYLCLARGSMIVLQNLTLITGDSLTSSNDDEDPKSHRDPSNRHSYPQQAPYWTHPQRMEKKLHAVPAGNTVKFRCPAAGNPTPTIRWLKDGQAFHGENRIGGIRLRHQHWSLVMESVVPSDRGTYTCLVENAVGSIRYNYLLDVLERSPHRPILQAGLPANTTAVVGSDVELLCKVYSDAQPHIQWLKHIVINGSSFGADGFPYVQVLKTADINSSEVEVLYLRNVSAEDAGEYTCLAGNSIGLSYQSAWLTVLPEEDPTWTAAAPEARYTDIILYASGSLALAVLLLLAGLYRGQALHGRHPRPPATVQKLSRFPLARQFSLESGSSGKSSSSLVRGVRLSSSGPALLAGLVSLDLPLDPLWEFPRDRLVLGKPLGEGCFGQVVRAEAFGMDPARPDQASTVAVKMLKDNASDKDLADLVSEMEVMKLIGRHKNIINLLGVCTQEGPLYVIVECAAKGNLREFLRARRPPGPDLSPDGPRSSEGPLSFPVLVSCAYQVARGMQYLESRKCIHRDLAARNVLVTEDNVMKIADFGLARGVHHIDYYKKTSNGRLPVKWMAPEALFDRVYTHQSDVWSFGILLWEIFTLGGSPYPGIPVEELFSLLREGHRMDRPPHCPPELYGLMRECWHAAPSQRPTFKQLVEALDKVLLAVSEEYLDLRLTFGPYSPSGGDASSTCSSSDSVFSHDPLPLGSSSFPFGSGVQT

Tyrosine-protein kinase HCK (Homo sapiens), sequence (P08631 2-526 limits assumed): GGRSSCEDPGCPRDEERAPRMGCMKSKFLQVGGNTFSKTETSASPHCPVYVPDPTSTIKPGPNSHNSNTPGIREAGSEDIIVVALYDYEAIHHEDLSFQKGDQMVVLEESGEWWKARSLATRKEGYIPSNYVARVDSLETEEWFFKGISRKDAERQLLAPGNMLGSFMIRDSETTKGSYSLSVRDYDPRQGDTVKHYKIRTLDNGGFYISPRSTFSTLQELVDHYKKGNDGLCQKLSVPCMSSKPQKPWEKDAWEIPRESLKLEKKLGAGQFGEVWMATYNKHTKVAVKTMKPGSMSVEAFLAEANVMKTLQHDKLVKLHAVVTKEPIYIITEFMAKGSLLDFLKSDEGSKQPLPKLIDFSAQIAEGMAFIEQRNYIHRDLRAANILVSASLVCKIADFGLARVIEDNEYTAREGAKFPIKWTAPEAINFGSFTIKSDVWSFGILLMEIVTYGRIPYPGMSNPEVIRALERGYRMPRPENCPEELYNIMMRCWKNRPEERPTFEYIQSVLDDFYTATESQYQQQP
Misshapen-like kinase 1, sequence (Q8N4C8 whole entry, looked up, the tested form may be a part): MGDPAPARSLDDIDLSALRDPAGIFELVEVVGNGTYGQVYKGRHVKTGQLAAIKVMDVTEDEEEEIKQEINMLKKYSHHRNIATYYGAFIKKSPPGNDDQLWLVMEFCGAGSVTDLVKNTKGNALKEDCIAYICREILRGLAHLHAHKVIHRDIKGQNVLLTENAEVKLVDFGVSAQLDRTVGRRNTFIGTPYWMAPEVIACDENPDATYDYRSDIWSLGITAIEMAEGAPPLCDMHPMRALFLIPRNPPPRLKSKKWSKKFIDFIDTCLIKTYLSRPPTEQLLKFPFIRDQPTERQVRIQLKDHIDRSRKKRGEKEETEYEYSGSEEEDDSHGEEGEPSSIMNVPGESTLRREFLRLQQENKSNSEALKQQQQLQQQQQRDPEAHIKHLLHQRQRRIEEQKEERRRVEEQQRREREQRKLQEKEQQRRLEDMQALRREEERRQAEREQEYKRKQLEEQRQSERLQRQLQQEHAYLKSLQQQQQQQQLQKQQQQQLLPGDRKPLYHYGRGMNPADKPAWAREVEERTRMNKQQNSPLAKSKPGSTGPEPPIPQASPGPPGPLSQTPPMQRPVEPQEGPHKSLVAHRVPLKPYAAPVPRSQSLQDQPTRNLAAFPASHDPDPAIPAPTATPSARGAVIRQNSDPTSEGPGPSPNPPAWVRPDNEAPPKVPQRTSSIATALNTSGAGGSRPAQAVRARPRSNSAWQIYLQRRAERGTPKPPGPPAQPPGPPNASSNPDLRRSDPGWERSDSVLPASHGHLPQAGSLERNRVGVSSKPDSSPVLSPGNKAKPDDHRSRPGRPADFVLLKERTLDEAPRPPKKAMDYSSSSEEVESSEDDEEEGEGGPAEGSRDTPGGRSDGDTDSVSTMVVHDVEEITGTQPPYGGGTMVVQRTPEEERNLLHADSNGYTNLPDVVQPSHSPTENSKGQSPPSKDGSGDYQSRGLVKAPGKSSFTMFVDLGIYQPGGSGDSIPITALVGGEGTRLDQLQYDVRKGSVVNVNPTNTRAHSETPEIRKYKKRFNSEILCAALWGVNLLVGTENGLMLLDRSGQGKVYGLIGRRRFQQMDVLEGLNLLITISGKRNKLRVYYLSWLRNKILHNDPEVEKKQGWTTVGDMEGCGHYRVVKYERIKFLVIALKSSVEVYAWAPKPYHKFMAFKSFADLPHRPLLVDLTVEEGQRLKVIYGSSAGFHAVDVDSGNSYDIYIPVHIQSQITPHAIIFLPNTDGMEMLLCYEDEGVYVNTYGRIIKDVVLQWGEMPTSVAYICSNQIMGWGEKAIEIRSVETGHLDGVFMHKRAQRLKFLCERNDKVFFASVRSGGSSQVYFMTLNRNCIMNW

In the case of `CN(C)C/C=C/C(=O)Nc1ccc(C(=O)N2CCCC(Nc3ncc(Cl)c(-c4c[nH]c5ccccc45)n3)C2)cc1` (configuration not stated), the % of control [1] is reported as 100%.
In the case of `N#Cc1cccc(-c2c[nH]c3ncnc(N4CCOCC4)c23)c1`, the % of inhibition [2] is reported as 15%.
`C=CC(=O)Nc1cc(-n2c(=O)ccc3cnc4ccc(-c5ccc(NS(C)(=O)=O)cc5)cc4c32)ccc1C` showed a % of control ([3]; at 1 µM) of 100% and a % of control ([3]; at 10 µM) of 77%.
In the case of `COCC(=O)NC/C=C/c1ccc2ncnc(Nc3ccc(Oc4ccc(C)nc4)c(C)c3)c2c1` [CP-724714], the % of control [4] is reported as 100%.
`Cn1cc(-n2cnc3c(NCc4nc5cc(Cl)c(Cl)cc5[nH]4)nc(N4CCOCC4)nc32)cn1` gave a % of control [5] of 5.35%.
`Cc1cnc(Nc2ccc(F)cc2Cl)nc1-c1c[nH]c(C(=O)N[C@H](CO)c2cccc(Cl)c2)c1` gave a % of inhibition [6] of 0.3%.

Source: ChEMBL document CHEMBL5465560, “Selectivity Literature for EUbOPEN Chemogenomic Library” (2024)
